Experimental data from patent US6844347B1, “Substituted 4-amino-2aryl-pyrimidines, their production and use and pharmaceutical preparations containing same” (Aventis Pharma Deutschland GmbH, priority 1998, dated 2005).

Test system: not given
Assay: not given
Settings: not given
With `CC(C)c1cc(N2CC[S+]([O-])CC2)nc(-c2cc(Cl)cc(Cl)c2)n1` [Example 149, 2-(3,5-dichlorophenyl)-6-isopropyl-4-(1-oxothiomorpholino)pyrimidine] the melting point was 187 °C.
In the case of `Cc1ccc(-c2nc(C(C)C)cc(N3CC[S+]([O-])CC3)n2)cc1` [Example 148, 6-Isopropyl-2-(4-methylphenyl)-4-(1-oxothiomorpholino)pyrimidine], the melting point is reported as 152 °C.
`CC(C)c1cc(N2CCS(=O)(=O)CC2)nc(-c2ccc(Cl)cc2)n1` [Example 145, 2-(4-Chlorophenyl)-6-isopropyl-4-(1,1-dioxothiomorpholino)pyrimidine] gave a melting point of 226 °C.
Work on `CC[S+]([O-])CCNc1cc(C(C)C)nc(-c2ccc(Cl)cc2)n1` (stereo not drawn) [Example 147, 2-(4-Chlorophenyl)-4-((2-ethylsulfinylethyl)amino)-6-isopropylpyrimidine] yielded a melting point of 103 °C.
Compound `CC(C)c1cc([SH]2(=O)CCNC2)nc(-c2ccc(Cl)cc2)n1` [Example 146, 2-(4-Chlorophenyl)6-isopropyl-4-(1-oxo-1,3-thiazolidin-1-yl)pyrimidine] has a melting point of 128 °C.

Target: T1, soluble guanylate cyclase (sGC) (Bos taurus, UniProt P16068+P19687)
T1 construct: The sGC employed had been isolated from bovine lung; from tissue; host or cells: bovine lung
T1 sequence (P19687 1-691): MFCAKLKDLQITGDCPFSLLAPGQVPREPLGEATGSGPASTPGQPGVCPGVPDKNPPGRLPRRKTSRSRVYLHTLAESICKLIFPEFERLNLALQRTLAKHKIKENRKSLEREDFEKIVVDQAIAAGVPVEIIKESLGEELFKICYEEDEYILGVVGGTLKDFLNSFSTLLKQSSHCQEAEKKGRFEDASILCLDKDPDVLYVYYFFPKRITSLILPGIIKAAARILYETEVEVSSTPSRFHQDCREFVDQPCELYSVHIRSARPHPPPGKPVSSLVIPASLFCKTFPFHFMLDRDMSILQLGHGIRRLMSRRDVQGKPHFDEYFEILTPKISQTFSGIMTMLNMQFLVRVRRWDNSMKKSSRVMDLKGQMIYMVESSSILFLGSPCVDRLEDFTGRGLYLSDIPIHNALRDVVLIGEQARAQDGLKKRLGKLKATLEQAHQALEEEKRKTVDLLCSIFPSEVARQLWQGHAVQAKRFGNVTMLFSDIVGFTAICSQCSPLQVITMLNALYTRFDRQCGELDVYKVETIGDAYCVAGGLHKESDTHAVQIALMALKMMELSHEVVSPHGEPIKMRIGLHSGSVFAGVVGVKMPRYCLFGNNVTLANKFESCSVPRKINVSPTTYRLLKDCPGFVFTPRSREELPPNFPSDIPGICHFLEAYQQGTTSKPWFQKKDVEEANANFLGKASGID
T1 sequence (P16068 1-619): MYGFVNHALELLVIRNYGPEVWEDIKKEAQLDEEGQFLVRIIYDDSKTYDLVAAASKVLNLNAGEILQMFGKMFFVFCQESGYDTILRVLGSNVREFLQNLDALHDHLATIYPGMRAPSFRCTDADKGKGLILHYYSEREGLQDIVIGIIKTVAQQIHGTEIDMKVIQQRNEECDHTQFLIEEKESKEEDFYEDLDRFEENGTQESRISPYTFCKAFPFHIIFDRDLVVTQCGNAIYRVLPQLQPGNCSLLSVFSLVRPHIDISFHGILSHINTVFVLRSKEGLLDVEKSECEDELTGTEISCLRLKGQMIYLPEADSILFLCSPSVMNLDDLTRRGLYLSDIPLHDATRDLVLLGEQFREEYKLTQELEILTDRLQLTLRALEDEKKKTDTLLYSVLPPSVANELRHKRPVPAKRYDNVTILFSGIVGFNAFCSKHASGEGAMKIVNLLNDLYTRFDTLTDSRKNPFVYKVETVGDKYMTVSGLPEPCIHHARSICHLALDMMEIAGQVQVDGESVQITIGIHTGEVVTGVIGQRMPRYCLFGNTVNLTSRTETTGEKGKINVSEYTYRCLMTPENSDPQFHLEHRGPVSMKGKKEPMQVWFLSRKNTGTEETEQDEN
Assay: Activation of soluble guanylate cyclase (cGMP enzyme immunoassay)
Type: biochemical
Settings: test substance 50 μM; sGC isolated from bovine lung; [cGMP]test substance/[cGMP]control (basal activity with solvent); 37° C., 15 to 20 minutes
Procedure: The activation of soluble guanylate cyclase (sGC), which catalyzes the conversion of guanosine triphosphate (GTP) to cyclic guanosine monophosphate (cGMP) and pyrophosphate, by the compounds according to the invention was quantified with the aid of an enzyme immunoassay (EIA) from Amersham. For this, the test substances were first incubated with sGC in microtiter plates and then the quantity of the resulting cGMP was determined.
The sGC employed had been isolated from bovine lung (see Methods in Enzymology, Volume 195, p. 377). The test solutions (100 μl per well) contained 50 mM triethanolamine (TEA) buffer (pH 7.5), 3 mM MgCl2, 3 mM reduced glutathione (GSH), 0.1 mM GTP, 1 mM 3-isobutyl-1-methylxanthine (IBMX), suitably diluted enzyme solution and the test substance or, in the control experiments, solvent. The test substances were dissolved in dimethyl sulfoxide (DMSO) and the solution was diluted with DMSO/water such that the final concentration c of test substance in the test batch was 50 μM. The DMSO concentration in the test batch was 5% (v/v). The reaction was started by addition of the sGC. The reaction mix was incubated at 37° C. for 15 to 20 minutes and then stopped by ice-cooling and addition of the stop reagent (50 mM EDTA, pH 8.0). An aliquot of 50 μl was taken and employed for the determination of the cGMP content using the acetylation protocol of the Amersham cGMP EIA kit. The absorption of the samples was measured at 450 nm (reference wavelength 620 nm) in a microtiter plate reading apparatus. The cGMP concentration was determined by means of a calibration curve, which was obtained under the same experimental conditions. The activation of the sGC by a test substance is indicated as n-fold stimulation of the basal enzyme activity which was found in the control experiments (with solvent instead of test substance) (calculated according to the formula n-fold stimulation=[cGMP]test substance/[cGMP]control).
With `CC(C)(C)c1cc(N[C@H]2CC[C@H](O)CC2)nc(-c2ccc(Cl)cc2)n1` [Example 133] the “n-fold stimulation at c = 50 μM” value was greater than 16 n-fold.
For `CCCCNc1cc(C(C)C)nc(-c2ccc(C)cc2)n1` [Example 88], the “n-fold stimulation at c = 50 μM” value was greater than 8 n-fold.
For `CCN(CC)c1cc(C(C)C)nc(-c2ccc(Cl)cc2)n1` [Example 33], the “n-fold stimulation at c = 50 μM” value was greater than 16 n-fold.
For `Cc1ccc(-c2nc(C(C)C)cc(N3CCSCC3)n2)cc1` [Example 90], the “n-fold stimulation at c = 50 μM” value was greater than 16 n-fold.
With `Cc1ccc(-c2nc(C(C)C)cc(N3CCC(C(N)=O)CC3)n2)cc1` [Example 99] the “n-fold stimulation at c = 50 μM” value was greater than 4 n-fold.
In the case of `CCCN(CCC)c1cc(C(C)C)nc(-c2ccc(C)cc2)n1` [Example 85], the “n-fold stimulation at c = 50 μM” value is reported as greater than 16 n-fold.
With `Clc1ccc(-c2nc(-c3ccccc3)cc(N3CCCCCC3)n2)cc1` [Example 112] the “n-fold stimulation at c = 50 μM” value was greater than 8 n-fold.
For `COCCN(CCOC)c1cc(C(C)C)nc(-c2ccc(C)cc2)n1` [Example 98], the “n-fold stimulation at c = 50 μM” value was greater than 8 n-fold.
In the case of `CC(C)c1cc(NC2CCC(O)CC2)nc(-c2cc(Cl)cc(Cl)c2)n1` (stereo not drawn) [Example 77], the “n-fold stimulation at c = 50 μM” value is reported as 30 n-fold.
In the case of `CCCN(CCC)c1cc(-c2ccccc2)nc(-c2ccc(Cl)cc2)n1` [Example 69], the “n-fold stimulation at c = 50 μM” value is reported as greater than 4 n-fold.
In the case of `CC(C)c1cc(N2CCCCCC2)nc(-c2ccc(Cl)cc2)n1` [Example 38], the “n-fold stimulation at c = 50 μM” value is reported as greater than 8 n-fold.
In the case of `Cc1ccc(-c2nc(C(C)C)cc(N3C[C@@H](C)O[C@@H](C)C3)n2)cc1` [Example 97], the “n-fold stimulation at c = 50 μM” value is reported as greater than 16 n-fold.
For `CC(C)(C)c1cc(N2CCOCC2)nc(-c2ccc(Cl)cc2)n1` [Example 52], the “n-fold stimulation at c = 50 μM” value was greater than 8 n-fold.
In the case of `CCN(CC)c1cc(C(C)C)nc(-c2ccc(C)cc2)n1.Cl` [Example 86], the “n-fold stimulation at c = 50 μM” value is reported as greater than 16 n-fold.
For `CC(C)c1cc(N2CCSCC2)nc(-c2cc(Cl)cc(Cl)c2)n1` [Example 82], the “n-fold stimulation at c = 50 μM” value was greater than 4 n-fold.
With `CC(C)(C)c1cc(N2CCSCC2)nc(-c2ccc(Cl)cc2)n1` [Example 66] the “n-fold stimulation at c = 50 μM” value was greater than 4 n-fold.
With `CC(C)c1cc(NC2CCCC2)nc(-c2ccc(Cl)cc2)n1` [Example 124] the “n-fold stimulation at c = 50 μM” value was greater than 16 n-fold.
With `CCN(Cc1ccccc1)c1cc(C(C)C)nc(-c2ccc(Cl)cc2)n1` [Example 43] the “n-fold stimulation at c = 50 μM” value was greater than 4 n-fold.
In the case of `COCCCNc1cc(C(C)C)nc(-c2ccc(C)cc2)n1` [Example 23], the “n-fold stimulation at c = 50 μM” value is reported as greater than 8 n-fold.
With `CC(C)c1cc(N2CCOCC2)nc(-c2cc(Cl)cc(Cl)c2)n1` [Example 81] the “n-fold stimulation at c = 50 μM” value was greater than 4 n-fold.
With `CC(C)c1cc(N2CCSCC2)nc(-c2ccc(Cl)cc2)n1.Cl` [Example 30] the “n-fold stimulation at c = 50 μM” value was greater than 4 n-fold.
In the case of `CCCCNc1cc(C(C)C)nc(-c2ccc(Cl)cc2)n1` [Example 32], the “n-fold stimulation at c = 50 μM” value is reported as greater than 4 n-fold.
In the case of `CC(C)c1cc(NCCCCO)nc(-c2ccc(Cl)cc2)n1` [Example 137], the “n-fold stimulation at c = 50 μM” value is reported as greater than 16 n-fold.
In the case of `C=CCN(CC=C)c1cc(C(C)C)nc(-c2ccc(Cl)cc2)n1` [Example 36], the “n-fold stimulation at c = 50 μM” value is reported as greater than 8 n-fold.
For `CCN(CC)c1cc(C(C)C)nc(-c2cc(Cl)cc(Cl)c2)n1` [Example 80], the “n-fold stimulation at c = 50 μM” value was greater than 16 n-fold.
In the case of `CCCCNc1cc(C(C)C)nc(-c2cc(Cl)cc(Cl)c2)n1.Cl` [Example 79], the “n-fold stimulation at c = 50 μM” value is reported as greater than 4 n-fold.
For `CC(C)c1cc(N2CCCC2)nc(-c2ccc(Cl)cc2)n1.Cl` [Example 29], the “n-fold stimulation at c = 50 μM” value was greater than 4 n-fold.
In the case of `Cc1ccc(-c2nc(NC3CCC(O)CC3)cc(C(C)C)n2)cc1` (stereo not drawn) [Example 25], the “n-fold stimulation at c = 50 μM” value is reported as 28 n-fold.
For `Cc1ccc(-c2nc(C(C)C)cc(N3CCCCCC3)n2)cc1` [Example 100], the “n-fold stimulation at c = 50 μM” value was greater than 8 n-fold.
With `CC(C)c1cc(N[C@H]2CC[C@H](O)CC2)nc(-c2ccc(Cl)cc2)n1` [Example 125] the “n-fold stimulation at c = 50 μM” value was 32 n-fold.
In the case of `CC(C)c1cc(N2CCSC2)nc(-c2ccc(Cl)cc2)n1` [Example 45], the “n-fold stimulation at c = 50 μM” value is reported as greater than 4 n-fold.
In the case of `CC(C)c1cc(N2CCC(C(N)=O)CC2)nc(-c2ccc(Cl)cc2)n1` [Example 44], the “n-fold stimulation at c = 50 μM” value is reported as greater than 4 n-fold.
For `CCCN(CCC)c1cc(C(C)C)nc(-c2ccc(Cl)cc2)n1.Cl` [Example 35], the “n-fold stimulation at c = 50 μM” value was greater than 16 n-fold.
In the case of `CCCCN(CCCC)c1cc(C(C)C)nc(-c2ccc(Cl)cc2)n1.Cl` [Example 34], the “n-fold stimulation at c = 50 μM” value is reported as greater than 4 n-fold.
In the case of `Cc1ccc(-c2nc(C(C)C)cc(N3CCOCC3)n2)cc1` [Example 89], the “n-fold stimulation at c = 50 μM” value is reported as greater than 8 n-fold.
In the case of `CCCN(CCC)c1cc(C(C)C)nc(-c2cc(Cl)cc(Cl)c2)n1` [Example 84], the “n-fold stimulation at c = 50 μM” value is reported as greater than 16 n-fold.
For `CCN(CC)c1cc(-c2ccccc2)nc(-c2ccc(Cl)cc2)n1` [Example 63], the “n-fold stimulation at c = 50 μM” value was greater than 4 n-fold.
